Data set [1] relates to non-atherosclerotic (NA) and atherosclerotic (A) rabbits. The data set is described as follows: Serum biomarkers of cardiac injury (ASAT, CK, cardiac troponin I). It counts as in vivo, New Zealand White rabbits. The note with it: at the end of administration of the highest infusion rate, n = 5.
Data set [2] has the same test system. As to the kind of experiment: Hemodynamic dose-response to cumulative intravenous infusion rates in anesthetized rabbits. It counts as in vivo, New Zealand White rabbits. The note with it: incremental i.v. infusion rates, nonlinear regression, mean ± standard error of the mean. The protocol: Thirty male New Zealand White rabbits (2.6–3.6 kg, Centre d’élevage G. Achard de la Vente, St Mars d'Egrenne, France), aged 3–4 months were individually housed in stainless steel mesh cages (500 × 600 × 400 mm) at 19–25°C and ≥35% humidity with a 12-h light/dark cycle. Each animal received Bolapin (Huttepain Bouix, Le Mans, France) at approximately 60 g/day as standard diet (non-atherosclerotic animals) or supplemented with1% cholesterol for 6 weeks to induce atherosclerosis (both n = 15). The animals were fasted for at least 12 h before clinical laboratory blood sampling, on the day of the experiment, and before scheduled necropsy. Water was supplied ad libitum. On completion of cholesterol feeding, the animals were prepared surgically to determine cardiovascular variables and infused intravenously with selepressin, arginine vasopressin (AVP), or norepinephrine (NE) at incremental rates.
(§1) Following overnight fasting, the rabbits were pre-anesthetized intramuscularly using a mixture of 15 mg/kg ketamine hydrochloride (Imalgène 500®, Rhône Mérieux, Lyon, France) and 0.7 mg/kg xylazine hydrochloride (Rompun® 2%, KVP, Kiel, Germany). The animals were tracheotomized and maintained under isoflurane anesthesia (2% v/v isoflurane in oxygen [isoflurane: AErrane®, Baxter, Maurepas, France]). The electrocardiogram was monitored continuously (Lead II derivation) during surgery. A femoral vein was cannulated using a polyvinyl chloride catheter to administer selepressin, AVP, NE, or vehicle while a carotid artery was cannulated for blood sampling. A Millar catheter-tip transducer was introduced into the femoral artery to determine arterial pressure. The animals were infused intravenously using Ringer lactate (Lavoisier, Paris, France) at 2 mL/h.
A left parasternal image window was used to obtain a long-axis view, visualizing the entire ascending aorta, the innominate artery branch, and the left common carotid arteries in the same plane. Prior to dosing, all of the animals (atherosclerotic [A] and non-atherosclerotic [NA]) were examined by 2-dimensional ultrasonography using a 15-MHz linear probe. The thoracic aorta was visualized at up to 30 frames/s using a 120-μm axial resolution. An adequate penetration depth was set to several centimeters beyond the far wall of the ascending aorta. Intima-media thickness (IMT) immediately proximal to the innominate artery branch site was determined in a consistent manner in each animal using the arterial branching points as anatomic landmarks.
Doppler ultrasonographic measurements were performed using Acuson Séquoia 526 color Doppler equipment (Siemens, Saint-Denis, France). Aortic flow measurements were performed from a trans-hepatic view for perfect alignment (cos(theta) of the Doppler equation ≈1). Time velocity integrals and aortic diameter were determined for each time point by aortic echography.
Aortic blood flow (ABF, mL/min) was calculated according to the following formula: ABF (mL/min) = SV (mL/beat)×HR (beats/min) where:
• HR: heart rate • SV (stroke volume, mL) = ITVAo (cm) × SAo (cm^2) • ITVAo: Integral time velocity of the aorta evaluated from the mean of three to five consecutive velocity waveforms (i.e., three to five heartbeats) • SAo (Section of the aorta) = (π × DAo^2)/4 • DAo: Aortic diameter (cm) determined by aortic echography close to the maximal velocity measurement site.
Before treatment, the animals (n = 5 for each drug and for A vs. NA) were infused with the corresponding vehicle (10 mM acetate buffer at 9% v/v in 0.9% NaCl for selepressin, 10 mM acetate buffer at 0.3% v/v in 0.9% NaCl for AVP, and in 0.9% NaCl for NE) at 1 mL.kg^−1.h^−1 for 15 min. Selepressin acetate, AVP, and NE were administered via the femoral vein. […]

Data set [3] has the same test system. The data set is described as follows: Electrocardiogram monitoring during incremental infusion rates. It counts as in vivo, New Zealand White rabbits. The note with it: A and NA animals, NE finding at the highest rate tested (1 μg.kg^−1.min^−1). How it is done:
as §1
AP and electrocardiogram signals were amplified (Hugo Sachs Elektronik, March-Hugstetten, Germany) and recorded continuously using a computerized data acquisition system (Notocord, Croissy-sur-Seine, France) with acquisition rates of 500 and 1000 Hz for arterial pressure and electrocardiogram, respectively.

The nature of data set [4]: Plasma bioanalysis at the time of maximum hemodynamic effect. The note with it: New Zealand White, rabbit, in vivo, iv; atherosclerotic (A) rabbits; incremental i.v. infusion; LC-MS/MS for selepressin and AVP, LC with colorimetric detection for NE; mean ± standard deviation, n = 5; SD; read-out: maximum plasma concentration. How it is done:
Blood for bioanalysis was sampled from all of the animals both before the first infusion (vehicle control) and for each infusion rate at the time of maximum hemodynamic effect. Quantification of selepressin, AVP, or NE in plasma samples was performed using validated liquid chromatography with tandem mass spectrometric detection for selepressin and AVP and validated liquid chromatography with colorimetric detection for NE. All of the animals treated with selepressin, AVP, or NE were exposed in a dose-dependent manner, with no difference between A and NA animals. The maximum selepressin plasma concentrations (mean ± standard deviation) were 329±52 and 367±48 ng/mL for A and NA animals, respectively, for AVP they were 122±27 and 100±46.2 ng/mL for A and NA, respectively, and for NE they were 301±126 and 345±164 ng/mL for A and NA, respectively.

The conditions of data set [5]: healthy dogs; ref unpublished results; cited from earlier work.
For data set [6] the following is noted: healthy rats; ref unpublished results; cited from earlier work.
Another data set has as its system healthy dogs. To be noted: cited from earlier work.
Where [7] appears, read: non-atherosclerotic (NA) rabbits.
Setting [8] is: atherosclerotic (A) rabbits, SEM.
Where [9] appears, read: non-atherosclerotic (NA) rabbits, SEM.

Like-named read-outs stand apart in the source and are kept apart here. Where a SMILES comes first, the peptide text is derived from it. Bridges are numbered along the chain shown (N, C = ends). [ ]: non-standard residue; d: D form. Orn(iPr) = CC(C)NCCC[C@H](N)C(=O)O; Aad = N[C@@H](CCCC(=O)O)C(=O)O

`NC(=O)CC[C@@H]1NC(=O)[C@H](Cc2ccccc2)NC(=O)[C@H](Cc2ccc(O)cc2)NC(=O)[C@@H](N)CSSC[C@@H](C(=O)N2CCC[C@H]2C(=O)N[C@@H](CCCN=C(N)N)C(=O)NCC(N)=O)NC(=O)[C@H](CC(N)=O)NC1=O` [AVP, arginine vasopressin]: the “serum aspartate aminotransferase activity vs baseline” value in data set [1] (atherosclerotic (A) rabbits) is recorded as “not significantly different from baseline”. The “serum aspartate aminotransferase activity vs baseline” value in data set [1] (setting [7]) was “not significantly different from baseline”. Further, in data set [2] (setting [8]), the “Log ED50, aortic blood flow (ABF)” value is recorded as −8.4±0.2 log(ng.kg^-1.min^-1); the “Log ED50, diastolic arterial pressure (DAP)” value (from here on “Log ED50 … (DAP)”) is −8.7±1.1 log(ng.kg^-1.min^-1); the “Log ED50, heart rate (HR)” value is recorded as −8.5±0.5 log(ng.kg^-1.min^-1); the “Log ED50, mean arterial pressure (MAP)” value is reported as −8.6±1.4 log(ng.kg^-1.min^-1). In data set [2] (setting [8]), the “Log ED50, stroke volume (SV)” value is reported as −7.9±5.1 log(ng.kg^-1.min^-1) and the “Log ED50, systolic arterial pressure (SAP)” value (shortened to “Log ED50 … (SAP)”) was −8.6±3.2 log(ng.kg^-1.min^-1). The “Log ED50, mean arterial pressure (MAP)” value in data set [2] (setting [7]) is “No fit”. For the same compound, in data set [2] (setting [9]), the “Log ED50, aortic blood flow (ABF)” value was −8.1±0.5 log(ng.kg^-1.min^-1); the “Log ED50 … (DAP)” value is on record as −10.0±7.5 log(ng.kg^-1.min^-1); the “Log ED50, heart rate (HR)” value is −8.6±0.2 log(ng.kg^-1.min^-1); the “Log ED50, stroke volume (SV)” value is given as −7.5±5.9 log(ng.kg^-1.min^-1). In data set [2] (setting [9]), the “Log ED50 … (SAP)” value is on record as −6.6±1.9 log(ng.kg^-1.min^-1). Also, in data set [3], the “electrocardiogram abnormalities (including ST segment elevation)” value (from here on “electrocardiogram abnormalities”) is recorded as “No electrocardiogram abnormalities”. Also, in data set [4], the Cmax was found to be 122 ± 27 ng/mL.

Turning to `NC[C@H](O)c1ccc(O)c(O)c1` [NE, norepinephrine], in data set [2] (setting [8]), the “Log ED50, aortic blood flow (ABF)” value was −6.2±0.7 log(ng.kg^-1.min^-1); the “Log ED50 … (DAP)” value is listed as −5.8±0.4 log(ng.kg^-1.min^-1); the “Log ED50, heart rate (HR)” value is on record as −7.0 ±1.2 log(ng.kg^-1.min^-1); the “Log ED50, mean arterial pressure (MAP)” value is recorded as −5.7±0.3 log(ng.kg^-1.min^-1). In data set [2] (setting [8]), the “Log ED50, stroke volume (SV)” value is −5.4±0.4 log(ng.kg^-1.min^-1). Further, in data set [2] (setting [9]), the “Log ED50, aortic blood flow (ABF)” value is listed as −6.5±0.4 log(ng.kg^-1.min^-1); the “Log ED50 … (DAP)” value is −6.0±0.3 log(ng.kg^-1.min^-1); the “Log ED50, heart rate (HR)” value is given as −6.9±0.9 log(ng.kg^-1.min^-1); the “Log ED50, mean arterial pressure (MAP)” value was −6.1±0.3 log(ng.kg^-1.min^-1). Moreover, in data set [2] (setting [9]), the “Log ED50, stroke volume (SV)” value is given as −6.5±0.4 log(ng.kg^-1.min^-1) and the “Log ED50 … (SAP)” value is −6.1±0.2 log(ng.kg^-1.min^-1). Moreover, the “electrocardiogram abnormalities” value in data set [3] was “Some premature ventricular beats”.

Usually half-life stands for the time needed for the level to fall by half in the phase considered. Consider `CC[C@H](C)[C@@H]1NC(=O)[C@H](Cc2ccccc2)NC(=O)[C@@H](N)CSSC[C@@H](C(=O)N2CCC[C@H]2C(=O)N[C@@H](CCCNC(C)C)C(=O)NCC(N)=O)NC(=O)[C@H](CC(N)=O)NC(=O)[C@H](CCCC(N)=O)NC1=O` [Selepressin, selepressin] (H-CFI[Aad](NH2)NCP[Orn(iPr)]G-NH2; disulfide 1-6), for which the “serum aspartate aminotransferase activity vs baseline” value in data set [1] (atherosclerotic (A) rabbits) and in data set [1] (setting [7]) was “not significantly different from baseline” each time. The half-life in data set [5] is recorded as roughly 30 min; in data set [6], “approximately 20 min”. Further, the “electrocardiogram abnormalities” value in data set [3] is given as “No electrocardiogram abnormalities”. Moreover, the Cmax in data set [4] amounted to 329 ± 52 ng/mL. In the data set on healthy dogs, the coronary ischemic liability entry was “no relevant coronary ischemic liability”.

(Values after article PMC5082805 (PLoS ONE, 2016).)
